Blank lines part the entries; values can stand above or below the compound they belong to. The source made the active and inactive calls. The calls are words filed in the database; no cut-off is given here. Where a SMILES comes first, the peptide text is derived from it. Bridges are numbered along the chain shown (N, C = ends). [ ]: non-standard residue; d: D form. hArg = N=C(N)NCCCC[C@H](N)C(=O)O; Mpa = O=C(O)CCS
Assays:
[1] = test system: Rattus norvegicus; test: Anti-thrombotic activity in Sprague-Dawley rat arterial thrombosis model assessed as reduction in thrombus weight at 1 umol/kg, po pretreated for 30 mins followed by thrombosis induction measured after 15 mins; format: functional, organism-based
[2] = target: T1, Integrin subunit alpha 2b/beta-3 (Rattus norvegicus, UniProt D3ZAC0+Q8R2H2); test: Binding affinity to GP2b/3a in rat blood assessed as conformational change by measuring soluble GP2b/3a levels after 12 hrs by UV-spectrophotometric analysis
T1 sequence (D3ZAC0 whole entry): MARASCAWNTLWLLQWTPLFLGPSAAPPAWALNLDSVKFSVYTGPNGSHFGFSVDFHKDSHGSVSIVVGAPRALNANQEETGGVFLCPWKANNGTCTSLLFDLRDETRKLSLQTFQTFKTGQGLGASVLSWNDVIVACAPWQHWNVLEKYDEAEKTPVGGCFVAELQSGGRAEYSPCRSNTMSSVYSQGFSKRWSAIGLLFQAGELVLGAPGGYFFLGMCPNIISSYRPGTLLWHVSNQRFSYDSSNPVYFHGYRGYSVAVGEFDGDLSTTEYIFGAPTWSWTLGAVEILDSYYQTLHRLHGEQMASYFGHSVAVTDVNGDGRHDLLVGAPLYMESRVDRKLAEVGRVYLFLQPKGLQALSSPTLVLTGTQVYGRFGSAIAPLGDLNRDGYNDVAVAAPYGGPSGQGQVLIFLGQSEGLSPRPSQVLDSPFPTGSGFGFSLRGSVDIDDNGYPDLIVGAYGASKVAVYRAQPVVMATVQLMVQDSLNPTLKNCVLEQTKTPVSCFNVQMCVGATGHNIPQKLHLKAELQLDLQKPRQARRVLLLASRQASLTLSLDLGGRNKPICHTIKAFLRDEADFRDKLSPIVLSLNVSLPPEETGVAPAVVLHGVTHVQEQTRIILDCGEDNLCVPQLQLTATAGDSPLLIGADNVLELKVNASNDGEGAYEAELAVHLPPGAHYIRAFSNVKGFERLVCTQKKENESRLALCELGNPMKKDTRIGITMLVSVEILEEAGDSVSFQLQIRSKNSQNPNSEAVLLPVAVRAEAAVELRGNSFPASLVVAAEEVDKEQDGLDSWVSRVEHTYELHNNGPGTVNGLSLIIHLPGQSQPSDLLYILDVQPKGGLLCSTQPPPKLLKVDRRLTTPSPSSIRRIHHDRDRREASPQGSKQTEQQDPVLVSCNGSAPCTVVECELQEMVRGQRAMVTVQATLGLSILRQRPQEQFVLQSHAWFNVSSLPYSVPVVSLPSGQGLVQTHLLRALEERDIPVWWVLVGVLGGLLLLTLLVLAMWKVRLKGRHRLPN
T1 sequence (Q8R2H2 whole entry): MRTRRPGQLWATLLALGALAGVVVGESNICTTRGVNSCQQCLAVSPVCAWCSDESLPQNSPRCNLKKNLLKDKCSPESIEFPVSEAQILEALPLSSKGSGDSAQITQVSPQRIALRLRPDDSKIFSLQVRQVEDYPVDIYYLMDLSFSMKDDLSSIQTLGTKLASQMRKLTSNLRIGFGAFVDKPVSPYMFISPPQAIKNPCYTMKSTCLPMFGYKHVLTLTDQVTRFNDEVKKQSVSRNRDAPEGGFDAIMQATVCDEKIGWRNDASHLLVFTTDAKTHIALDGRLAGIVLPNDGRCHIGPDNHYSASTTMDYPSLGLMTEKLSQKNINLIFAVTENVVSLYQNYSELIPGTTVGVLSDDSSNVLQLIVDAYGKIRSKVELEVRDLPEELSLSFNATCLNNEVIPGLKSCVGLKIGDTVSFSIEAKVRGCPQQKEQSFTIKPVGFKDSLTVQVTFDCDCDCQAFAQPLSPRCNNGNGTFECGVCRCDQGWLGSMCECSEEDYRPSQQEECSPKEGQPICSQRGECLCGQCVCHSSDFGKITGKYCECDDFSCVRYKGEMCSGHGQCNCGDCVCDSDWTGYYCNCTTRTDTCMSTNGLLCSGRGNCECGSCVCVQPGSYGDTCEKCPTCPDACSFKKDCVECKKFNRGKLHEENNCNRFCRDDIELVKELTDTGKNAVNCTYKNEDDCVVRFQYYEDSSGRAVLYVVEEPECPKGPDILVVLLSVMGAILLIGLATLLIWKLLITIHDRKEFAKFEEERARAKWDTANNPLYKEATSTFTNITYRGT

[3] = target: T2, Integrin subunit alpha 2b/beta-3 (Rattus norvegicus) (UniProt D3ZAC0+Q8R2H2); test: Inhibition of GP2b/3a in rat platelet-rich plasma assessed as reduction in arachidonic acid-induced platelet aggregation at 10^-8 to 10^-5 M after 5 mins by aggregometric analysis
[4] = test system: Rattus norvegicus; test: Antiplatelet activity in Sprague Dawley rat arterial thrombosis model assessed as downregulation of GP2b/3a protein expression in plasma administered at 1 umol/kg, po by ELISA; format: functional, organism-based
[5] = test system: Platelet; test: Antiplatelet activity in rat platelet-rich plasma assessed as inhibition of arachidonic acid-induced platelet aggregation by atomic force microscopic method; format: functional
[6] = target: T2, Integrin subunit alpha 2b/beta-3 (Rattus norvegicus); test: Inhibition of GP2b/3a in rat platelet-rich plasma assessed as reduction in arachidonic acid-induced platelet aggregation at 10^-8 to 10^-2 M after 5 mins by aggregometric analysis
[7] = test system: Rattus norvegicus; test: Anti-thrombotic activity in Sprague-Dawley rat arterial thrombosis model assessed as reduction in thrombus weight at 16.7 umol/kg, po pretreated for 30 mins followed by thrombosis induction measured after 15 mins; format: functional, organism-based

Compound: C[C@H]1N[C@H](C(=O)O)Cc2c1[nH]c1ccccc21
Activity [1]: Active
EC50 [2]: 1160 nM
inhibition [3]: Active
Activity [4]: Active
Activity [5]: Dose-dependent effect
MEC [5]: 1 ×10⁻⁶ M

Compound: N=C(N)NCCC[C@H](N)C(=O)NCC(=O)N[C@@H](CC(=O)O)C(=O)N[C@@H](CO)C(=O)O
inhibition [6]: Active

Compound: CC(=O)Oc1ccccc1C(=O)O
Activity [7]: Active

Now from value to compound, other results behind:

EC50 [2]: 1660 nM
inhibition [3]: Active
Compound: C[C@@H]1N[C@H](C(=O)O)Cc2c1[nH]c1ccccc21
Activity [1]: Active
Activity [4]: Active
Activity [5]: Dose-dependent effect
MEC [5]: 1 ×10⁻⁵ M

inhibition [3]: Active
Compound: N=C(N)NCCCC[C@@H]1NC(=O)CCSSC[C@@H](C(N)=O)NC(=O)[C@@H]2CCCN2C(=O)[C@H](Cc2c[nH]c3ccccc23)NC(=O)[C@H](CC(=O)O)NC(=O)CNC1=O ([Mpa][hArg]GDWPC-NH2; disulfide 1-7)
